Measured values from patent US9073830B2 (Hyundai Pharm Co., Ltd., priority 2011, dated 2015).

Tests used:
human 11β-HSD2 = target: T1, human 11β-HSD2 (Homo sapiens, UniProt P80365); experiment: 11b-HSD2 inhibition test in transfected CHO cells; format: cell-based; conditions: at a concentration of 10 uM; CHO cells expressing human 11β-HSD2; read-out: 11b-HSD2 inhibitory effect
T1 construct: host or cells: CHO cells
T1 sequence (P80365 1-405): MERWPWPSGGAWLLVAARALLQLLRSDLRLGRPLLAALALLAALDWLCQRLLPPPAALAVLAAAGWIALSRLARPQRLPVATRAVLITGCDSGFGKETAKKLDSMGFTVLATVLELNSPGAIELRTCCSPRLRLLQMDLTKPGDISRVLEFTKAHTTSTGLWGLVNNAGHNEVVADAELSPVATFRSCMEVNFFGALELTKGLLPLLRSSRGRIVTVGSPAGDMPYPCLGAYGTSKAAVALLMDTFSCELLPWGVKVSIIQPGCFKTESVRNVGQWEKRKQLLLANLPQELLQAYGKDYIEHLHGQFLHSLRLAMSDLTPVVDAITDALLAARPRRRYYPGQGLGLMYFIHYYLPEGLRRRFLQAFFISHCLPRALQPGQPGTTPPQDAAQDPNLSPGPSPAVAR
Method: CHO cells were plated on a 96 well plate with RPMI (Wellgene) medium (phenol red free) containing 100 μl of 10% FBS, 100 ug/ml of penicillin and 100 ug/ml of streptomycin (2×10^4 cells/well). CHO cells were transfected with plasmid (Origene, SC122552) (pCMV6-XL5 vector) expressing human 11β-HSD2 by using FuGENE6 reagent (Promega, E2311). 24 hours after transfection, the transfected cells were added with 50 nM of cortisol (Sigma) in the presence or absence of the compound at various concentrations. On the following day (24 hours later), the supernatant liquid was obtained, and through HTRF (Cisbio, 62CO2PEB) analysis, a competitive amount of cortisol was measured.

mouse 11β-HSD1 = target: T2, mouse 11β-HSD1 (Mus musculus, UniProt P50172); experiment: Enzyme activity analysis on mouse 11β-HSD1 (HTRF cortisol, liver microsomes); format: biochemical; conditions: second value of cell
T2 construct: 100 ug/ml human/mouse liver microsomes; from tissue; host or cells: mouse liver microsomes
Method in brief: (§1)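 Cortisol generated by mouse or human liver microsome 11β-HSD1 during 2 h at 37° C., measured by HTRF competition (cryptate anti-cortisol antibody, d2-cortisol, 2 h room temperature) against a cortisol standard curve. IC50 from percent inhibition versus no-compound control.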

glucocorticoid receptor = target: T3, glucocorticoid receptor (Homo sapiens, UniProt P04150); experiment: Competitive binding of glucocorticoid receptor (LanthaScreen TR-FRET); conditions: final concentration 10 uM
T3 construct: 4× GR-LBD up to 4 nM, and 4× Tb anti-GST Antibody up to 8 nM; purchased Invitrogen PV6040
T3 sequence (P04150 524-758 limits assumed): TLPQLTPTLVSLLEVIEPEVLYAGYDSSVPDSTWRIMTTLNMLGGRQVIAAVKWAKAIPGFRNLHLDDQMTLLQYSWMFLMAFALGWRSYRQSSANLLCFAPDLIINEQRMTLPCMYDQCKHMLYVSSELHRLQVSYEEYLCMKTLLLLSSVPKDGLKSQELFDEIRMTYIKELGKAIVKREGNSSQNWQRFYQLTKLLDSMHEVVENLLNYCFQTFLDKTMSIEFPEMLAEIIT
Method: In order to confirm the selective inhibitory ability of 11β-HSD1 inhibitor, competitive binding between 11β-HSD1 inhibitor and glucocorticoid ligand was tested by using LanthaScreen TR-FRET Glucocorticoid Receptor Competitive Binding Assay (Invitrogen, PV6040). The test material was dissolved in DMSO (Sigma, 276855) up to a 100× concentration of its final concentration (10 uM), and then Complete Nuclear Receptor Buffer F (1× stabilizing peptide, 5 mM DTT, Nuclear Receptor Buffer F) was used to dilute the test material up to a concentration of 2×, 4× Fluormone™ GS1 Green up to 20 nM, 4× GR-LBD up to 4 nM, and 4× Tb anti-GST Antibody up to 8 nM.
In order to obtain 60 μl of a final product through a reaction, on a 96-well plate, 2× test material 30 μl, 4× Fluormone™ GS1 Green 15 μl, and 4× GR-LBD/Tb anti-GST Antibody 15 μl were mixed, and reacted for 1 hour. In a positive control group, instead of the test material, Dexamethasone (Sigma, D1756), known as a ligand for glucocorticoid receptor, was used, and in a maximum active control group, DMSO was used, instead of the test material. In a negative control group, instead of the test material, DMSO was used, instead of Fluormone™ GS1 Green, Complete Nuclear Receptor Buffer F was used. On a 384-well white plate, 20 μl each was plated. By using Time-Resolved program in Flexstation3, a fluorescence value was read after excitation ([…]), emission (515 nM/486 nM), Delay time (100 μs), and Integration time (1500 μs) were programmed. By using the obtained value, a value of 515 nM/486 nM was calculated, from which the value in the negative control group was subtracted. The degree of binding of the test material to glucocorticoid receptor of was calculated by the active value of the test material with respect to the active value (100%) in the maximum active control group.

human 11β-HSD1 = target: T4, human 11β-HSD1 (Homo sapiens, UniProt P28845); experiment: Enzyme activity analysis on human 11β-HSD1 (HTRF cortisol, liver microsomes); format: biochemical; conditions: first value of cell
T4 construct: 100 ug/ml human/mouse liver microsomes; from tissue; host or cells: human liver microsomes
Method in brief: as §1

T4 sequence (P28845 whole entry): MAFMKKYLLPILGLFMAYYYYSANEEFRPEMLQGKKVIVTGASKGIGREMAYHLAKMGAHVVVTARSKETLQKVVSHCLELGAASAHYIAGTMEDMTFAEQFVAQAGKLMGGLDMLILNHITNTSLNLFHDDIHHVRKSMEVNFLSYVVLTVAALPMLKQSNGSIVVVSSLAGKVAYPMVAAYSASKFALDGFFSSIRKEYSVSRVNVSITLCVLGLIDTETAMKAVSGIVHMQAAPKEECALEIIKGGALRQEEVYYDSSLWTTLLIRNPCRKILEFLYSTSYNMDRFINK
T2 sequence (P50172 whole entry): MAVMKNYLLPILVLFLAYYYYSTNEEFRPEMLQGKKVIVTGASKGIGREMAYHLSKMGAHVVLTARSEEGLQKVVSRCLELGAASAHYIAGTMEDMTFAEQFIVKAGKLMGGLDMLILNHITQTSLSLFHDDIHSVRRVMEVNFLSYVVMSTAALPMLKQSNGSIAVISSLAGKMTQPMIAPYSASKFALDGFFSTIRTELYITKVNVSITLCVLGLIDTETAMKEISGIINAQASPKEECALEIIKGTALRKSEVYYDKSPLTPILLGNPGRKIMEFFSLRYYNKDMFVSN

Row | Structure (SMILES) | inhibition at 10 µM (human 11β-HSD2) [%] | IC50 (mouse 11β-HSD1) [µM] | binding to glucocorticoid receptor (glucocorticoid receptor) | IC50 (human 11β-HSD1) [µM]
1 | Cc1ccc(S(=O)(=O)NC(C)(C)C(=O)NC2C3CC4CC2CC(C(N)=O)(C4)C3)cc1F (stereo not drawn) [compound 92, N-4-(2-(3-fluoro-4-methylphenylsulfonamido)-2-methylpropanamido)adamantane-1-carboxyamide] | ≤ 40 | 0.077 | did not bind to glucocorticoid receptor | 0.032
2 | CC(C)(NS(=O)(=O)c1ccccc1[N+](=O)[O-])C(=O)NC1C2CC3CC1CC(C(N)=O)(C3)C2 (stereo not drawn) [compound 106, N-4-(2-(2-nitrophenylsulfonamido)-2-methylpropanamido)adamantane-1-carboxyamide] | ≤ 40 | 0.04 | did not bind to glucocorticoid receptor | 0.041
3 | NC(=O)C12CC3CC(C1)C(NC(=O)C1(NS(=O)(=O)c4cccc5cccnc45)CCC1)C(C3)C2 (stereo not drawn) [compound 146, N-4-(1-(quinoline-8-sulfonamido)cyclobutanecarboxyamido)adamantane-1-carboxyamide] | ≤ 40 | 0.02 | – | 0.029
4 | CC(C)(NS(=O)(=O)c1c(Cl)cccc1Cl)C(=O)NC1C2CC3CC1CC(C(N)=O)(C3)C2 (stereo not drawn) [compound 121] | ≤ 40 | 0.004 | – | 0.009
5 | CC(C)(NS(=O)(=O)c1ccccc1C(F)(F)F)C(=O)NC1C2CC3CC1CC(C(N)=O)(C3)C2 (stereo not drawn) [compound 108, N-4-(2-(2-trifluoromethylphenylsulfonamido)-2-methylpropanamido)adamantane-1-carboxyamide] | ≤ 40 | 0.029 | did not bind to glucocorticoid receptor | 0.011
6 | CC(C)(NS(=O)(=O)c1cccc2cccnc12)C(=O)NC1C2CC3CC1CC(C(N)=O)(C3)C2 (stereo not drawn) [compound 105, N-4-(2-(quinoline-8-sulfonamido)-2-methylpropanamido)adamantane-1-carboxyamide] | ≤ 40 | 0.006 | – | 0.023
